# Earlier results, collected in US20140107223A1, “TOPICAL UBIQUINOL SUPPLEMENT SKIN CARE COMPOSITIONS” (WHITEHILL ORAL TECHNOLOGIES, INC., priority 2012, published 2014).
# Columns and labels:
# [1] = not given; remark: listed apart in the source
# [2] = 150 mg capsule/day for two months
# [3] = system: human monocytic cellline THP-1; settings: LPS-stimulated THP-1
# [4] = topical once weekly via syringe for six weeks, combined with mechanical debridement
# [5] = system: CRP concentrations; settings: dietary supplementation, healthy baboons
Molecule,bioavailability versus ubiquinone (oral),time to steady-state concentrations (oral administration),"time required to reach peak concentration (oral administration, absorption from the gastrointestinal tract)","peak blood values (oral, 150 mg per day in a softgel, within 28 days) [µg/mL]",water solubility [1],effect on oral environment for periodontal disease [2],effect on inflammatory cytokines and chemokines in vitro [3],bleeding on probing [4],baseline inflammatory status indicated by CRP concentrations [5]
COc1c(O)c(C)c(C/C=C(\C)CC/C=C(\C)CC/C=C(\C)CC/C=C(\C)CC/C=C(\C)CC/C=C(\C)CC/C=C(\C)CC/C=C(\C)CC/C=C(\C)CCC=C(C)C)c(O)c1OC [UBIQUINOL],greater bioavailability than ubiquinone,two,approximately 6 hours,3.84,less than 0.1 mg/ml,is effective in improving oral environment for periodontal disease,anti-inflammatory effects,,
"COC1=C(OC)C(=O)C(C/C=C(\C)CC/C=C(\C)CC/C=C(\C)CC/C=C(\C)CC/C=C(\C)CC/C=C(\C)CC/C=C(\C)CC/C=C(\C)CC/C=C(\C)CCC=C(C)C)=C(C)C1=O [CoQ10, coenzyme Q10]",,,,,,,,no bleeding at six weeks,significantly enhances this anti-inflammatory effect
Vitamin E,,,,,,,,,reduces baseline inflammatory status
